Experimental data: patent US11643438B2, “Antimicrobial peptides and methods of use” (priority 2018, dated 2023)
≈ marks a conversion by molar mass, not a printed value. Entries after “also recorded” stand apart in the source; their conditions may differ. Read-outs that look alike come from different tables or passages of the source. *1 amine or outer side, *2 acyl side, *3 side chain or, on linkers, in order; H or OH if unused. Where a SMILES comes first, the peptide text is derived from it. [ ]: non-standard residue; d: D form. X2 = CC[C@H](C)C[C@H](C)C[C@H](C)C[C@H](N[*:1])C(=O)[*:2]; X1 = CC[C@@H](C)[C@@H](O[*:1])C(=O)[*:2]; NMeVal(β-OH) = CN[C@H](C(=O)O)C(C)(C)O; aIle = CC[C@@H](C)[C@H](N)C(=O)O; NMeV = CN[C@H](C(=O)O)C(C)C; Sar = CNCC(=O)O

What was measured:
[1] = test system: Candida krusei ATCC 6258 (Y-7179); test: Antifungal MIC80/MFC assay, fungal pathogen panel
[2] = test system: Aspergillus terreus 191A6; test: Antifungal MIC80/MFC assay, fungal pathogen panel
Candida albicans 1 = test: Antifungal MIC80 assay, clinical yeast isolates
Candida auris 388 = test: Antifungal MIC80 assay, clinical yeast isolates
[3] = test system: Candida duobushaemulonii 394; test: Antifungal MIC80 assay, clinical yeast isolates
Candida albicans 8 = test: Antifungal MIC80 assay, clinical yeast isolates
Candida albicans 14 = test: Antifungal MIC80 assay, clinical yeast isolates
Candida lusitaniae 398 = test: Antifungal MIC80 assay, clinical yeast isolates
Candida glabrata 17 = test: Antifungal MIC80 assay, clinical yeast isolates
[4] = test system: Saccharomyces cerevisiae 399; test: Antifungal MIC80 assay, clinical yeast isolates
Candida albicans 30 = test: Antifungal MIC80 assay, clinical yeast isolates
Candida auris 390 = test: Antifungal MIC80 assay, clinical yeast isolates
Candida parapsilosis 28 = test: Antifungal MIC80 assay, clinical yeast isolates
[5] = test system: 44 clinical yeast isolates (Candida, Kodameae, Saccharomyces); test: Antifungal MIC80 assay, summary over 44 clinical yeast isolates
Candida glabrata 22 = test: Antifungal MIC80 assay, clinical yeast isolates
Candida krusei 397 = test: Antifungal MIC80 assay, clinical yeast isolates
[6] = test system: Candida duobushaemulonii 392; test: Antifungal MIC80 assay, clinical yeast isolates
Candida parapsilosis 7 = test: Antifungal MIC80 assay, clinical yeast isolates
Candida glabrata 20 = test: Antifungal MIC80 assay, clinical yeast isolates
Candida albicans 21 = test: Antifungal MIC80 assay, clinical yeast isolates
Candida auris 383 = test: Antifungal MIC80 assay, clinical yeast isolates
Candida glabrata 11 = test: Antifungal MIC80 assay, clinical yeast isolates
[7] = test system: Hamigera insecticola NRRL35442; test: Antifungal MIC80/MFC assay, fungal pathogen panel
Candida albicans 5 = test: Antifungal MIC80 assay, clinical yeast isolates
[8] = test system: Candida albicans ATCC 10231; test: Antifungal MIC80/MFC assay, fungal pathogen panel; details: ATCC10231
Candida albicans 10 = test: Antifungal MIC80 assay, clinical yeast isolates
[9] = test system: Mucor circinelloides 235C7; test: Antifungal MIC80/MFC assay, fungal pathogen panel
[10] = test system: Candida parapsilosis ATCC 22019 (Y-12969); test: Antifungal MIC80/MFC assay, fungal pathogen panel
Candida auris 384 = test: Antifungal MIC80 assay, clinical yeast isolates
Candida auris 381 = test: Antifungal MIC80 assay, clinical yeast isolates
[11] = test system: Aspergillus flavus NRRL485; test: Antifungal MIC80/MFC assay, fungal pathogen panel
[12] = test system: Saccharomyces cerevisiae 400; test: Antifungal MIC80 assay, clinical yeast isolates
[13] = test system: Aspergillus fumigatus NRRL6113; test: Antifungal MIC80/MFC assay, fungal pathogen panel
[14] = test system: Rhizopus oryzae FGSC 9543; test: Antifungal MIC80/MFC assay, fungal pathogen panel
[15] = test system: Aspergillus fumigatus NRRL5109; test: Ex vivo model of fungal keratitis (porcine cornea); details: for effect of different doses on fungal growth: FIG. 10
[16] = Candida krusei ATCC 6258 (Y-7179)
[17] = Candida parapsilosis ATCC 22019 (Y-12969)
[18] = Lodderomyces parapsilosis, ATCC22019

Compound C[C@@H]1[C@H](O)[C@@H](C)/C=C/C=C/C=C/C=C/C=C/C=C/C=C/[C@H](O[C@@H]2O[C@H](C)[C@@H](O)[C@H](N)[C@@H]2O)C[C@@H]2O[C@](O)(C[C@@H](O)C[C@@H](O)[C@H](O)CC[C@@H](O)C[C@@H](O)CC(=O)O[C@H]1C)C[C@H](O)[C@H]2C(=O)O [AMB, amphotericin B] has an MFC [1, 16] of 5 µM (≈ 4.62 µg/mL), an MIC80 [1, 16] of 2.5 µM (≈ 2.31 µg/mL) and an MFC [2] of 10 µM (≈ 9.24 µg/mL). The MIC80 [2] was 2.5 µM (≈ 2.31 µg/mL), the MIC80 (Candida albicans 1) was 0.6 µM (≈ 0.554 µg/mL) and the MIC80 (Candida auris 388; Candida auris 388, multidrug-resistant) was 2.5 µM (≈ 2.31 µg/mL). For the same compound, the MIC80 ([3]; Candida duobushaemulonii 394, multidrug-resistant) was 5 µM (≈ 4.62 µg/mL), the MIC80 (Candida albicans 8) was 0.6 µM (≈ 0.554 µg/mL) and the MIC80 (Candida albicans 14) was 1.25 µM (≈ 1.16 µg/mL). For the same compound, the MIC80 (Candida lusitaniae 398; Candida lusitaniae 398, multidrug-resistant) was 0.6 µM (≈ 0.554 µg/mL), the MIC80 (Candida glabrata 17; Candida glabrata 17) was 0.3 µM (≈ 0.277 µg/mL) and the MIC80 ([4]; Saccharomyces cerevisiae 399, multidrug-resistant) was 2.5 µM (≈ 2.31 µg/mL). It also gave an MIC80 (Candida albicans 30) of 2.5 µM (≈ 2.31 µg/mL), an MIC80 (Candida auris 390; Candida auris 390, multidrug-resistant) of 2.5 µM (≈ 2.31 µg/mL) and an MIC80 (Candida parapsilosis 28; Candida parapsilosis 28) of 1.25 µM (≈ 1.16 µg/mL). The “maximum MIC80 value” ([5]; 44 clinical yeast isolates) was 2.5 µM, the “median MIC80” value ([5]; 44 clinical yeast isolates) was 1.25 µM and the “minimum MIC80 value” ([5]; 44 clinical yeast isolates) was 0.15 µM. For the same compound, the MIC80 (Candida glabrata 22; Candida glabrata 22) was 0.3 µM (≈ 0.277 µg/mL), the MIC80 (Candida krusei 397; Candida krusei 397, multidrug-resistant) was 2.5 µM (≈ 2.31 µg/mL) and the MIC80 ([6]; Candida duobushaemulonii 392, multidrug-resistant) was 5 µM (≈ 4.62 µg/mL). It also gave an MIC80 (Candida parapsilosis 7; Candida parapsilosis 7) of 2.5 µM (≈ 2.31 µg/mL), an MIC80 (Candida glabrata 20; Candida glabrata 20) of 0.6 µM (≈ 0.554 µg/mL) and an MIC80 (Candida albicans 21) of 0.6 µM (≈ 0.554 µg/mL). It also gave an MIC80 (Candida auris 383; Candida auris 383, multidrug-resistant) of 2.5 µM (≈ 2.31 µg/mL), an MIC80 (Candida glabrata 11; Candida glabrata 11) of 0.3 µM (≈ 0.277 µg/mL) and an MFC [7] of 10 µM (≈ 9.24 µg/mL). The MIC80 [7] was 2.5 µM (≈ 2.31 µg/mL), the MIC80 (Candida albicans 5) was 0.6 µM (≈ 0.554 µg/mL) and the MFC [8] was 2.5 µM (≈ 2.31 µg/mL). It also gave an MIC80 [8] of 0.6 µM (≈ 0.554 µg/mL), an MIC80 (Candida albicans 10) of 0.6 µM (≈ 0.554 µg/mL) and an MFC [9] of 1.25 µM (≈ 1.16 µg/mL). For the same compound, the MIC80 [9] was 1.25 µM (≈ 1.16 µg/mL), the MFC [10, 17] was 5 µM (≈ 4.62 µg/mL) and the MIC80 [10, 17] was 1.25 µM (≈ 1.16 µg/mL). For the same compound, the MIC80 (Candida auris 384; Candida auris 384, multidrug-resistant) was 2.5 µM (≈ 2.31 µg/mL), the MIC80 (Candida auris 381; Candida auris 381, multidrug-resistant) was 1.25 µM (≈ 1.16 µg/mL) and the MFC [11] was 10 µM (≈ 9.24 µg/mL). For the same compound, the MIC80 [11] was 5 µM (≈ 4.62 µg/mL), the MIC80 ([12]; Saccharomyces cerevisiae 400, multidrug-resistant) was 1.25 µM (≈ 1.16 µg/mL) and the MFC [13] was 10 µM (≈ 9.24 µg/mL). The MIC80 [13] was 2.5 µM (≈ 2.31 µg/mL), the MFC ([14]; Rhizopus oryzae FGSC 9543) was 0.3 µM (≈ 0.277 µg/mL) and the MIC80 ([14]; Rhizopus oryzae FGSC 9543) was 0.3 µM (≈ 0.277 µg/mL).
In the case of CC[C@H](C)C[C@H](C)C[C@H](C)C[C@@H]1NC(=O)[C@H](C(C)C)N(C)C(=O)[C@@H]([C@H](C)CC)OC(=O)[C@H](C(C)(C)O)N(C)C(=O)[C@H](CC(C)C)NC(=O)[C@H](C(C)C)N(C)C(=O)[C@H]([C@H](C)CC)NC(=O)[C@@H]2CCCN2C(=O)CN(C)C1=O [Compound 1, persephacin] (cyclo(L[NMeVal(β-OH)][X1][NMeV][X2][Sar]P[aIle][NMeV])), the “effect of different doses on fungal growth” value ([15]; Aspergillus fumigatus NRRL 5109, 1,000 μg/mL) is reported as “eliminating”, the “antifungal activity (fungal growth/infection), in words” value ([15]; Aspergillus fumigatus NRRL 5109, 0.1% 118A, 2% fluconazole, 5% natamycin, FIG. 13) is reported as “inhibited the growth; also recorded: eliminated the fungus” and the “effect of different doses on fungal growth” value ([15]; Aspergillus fumigatus NRRL 5109, 50-250 μg/mL) is reported as “effective at reducing”. For the same compound, the CFU ([15]; Aspergillus fumigatus NRRL5109, 118A 0.1% (1 mg/ml), natamycin 5% (50 mg/ml), fluconazole 2% (20 mg/ml)) was 0 CFU, the MFC ([1]; Pichia kudriavzevii, ATCC6258) was 2.5 µM (≈ 2.69 µg/mL) and the MIC80 ([1]; Pichia kudriavzevii, ATCC6258) was 1.25 µM (≈ 1.34 µg/mL). The MFC [2] was greater than 10 µM, the MIC80 [2] was 2.5 µM (≈ 2.69 µg/mL) and the MIC80 (Candida albicans 1) was 2.5 µM (≈ 2.69 µg/mL). It also gave an MIC80 (Candida auris 388; Candidozyma auris, 388) of 2.5 µM (≈ 2.69 µg/mL), an MIC80 ([3]; Candidozyma duobushaemuli, 394) of 2.5 µM (≈ 2.69 µg/mL) and an MIC80 (Candida albicans 8) of 0.6 µM (≈ 0.645 µg/mL). For the same compound, the MIC80 (Candida albicans 14) was 0.6 µM (≈ 0.645 µg/mL), the MIC80 (Candida lusitaniae 398; Clavispora lusitaniae, 398) was 2.5 µM (≈ 2.69 µg/mL) and the MIC80 (Candida glabrata 17; Nakaseomyces glabratus, 17) was 0.15 µM (≈ 0.161 µg/mL). It also gave an MIC80 ([4]; Saccharomyces cerevisiae, 399) of 2.5 µM (≈ 2.69 µg/mL), an MIC80 (Candida albicans 30) of 5 µM (≈ 5.38 µg/mL) and an MIC80 (Candida auris 390; Candidozyma auris, 390) of 2.5 µM (≈ 2.69 µg/mL). For the same compound, the MIC80 (Candida parapsilosis 28; Lodderomyces parapsilosis, 28) was 2.5 µM (≈ 2.69 µg/mL), the MIC80 ([5]; read-out: maximum MIC80 value) was 5 µM (≈ 5.38 µg/mL) and the MIC80 ([5]; read-out: median MIC80) was 2.5 µM (≈ 2.69 µg/mL). It also gave an MIC80 ([5]; read-out: minimum MIC80 value) of 0.15 µM (≈ 0.161 µg/mL), an MIC80 (Candida glabrata 22; Nakaseomyces glabratus, 22) of 0.6 µM (≈ 0.645 µg/mL) and an MIC80 (Candida krusei 397; Pichia kudriavzevii, 397) of 2.5 µM (≈ 2.69 µg/mL). For the same compound, the MIC80 ([6]; Candidozyma duobushaemuli, 392) was 2.5 µM (≈ 2.69 µg/mL), the MIC80 (Candida parapsilosis 7; Lodderomyces parapsilosis, 7) was 2.5 µM (≈ 2.69 µg/mL) and the MIC80 (Candida glabrata 20; Nakaseomyces glabratus, 20) was 0.3 µM (≈ 0.323 µg/mL). It also gave an MIC80 (Candida albicans 21) of 1.25 µM (≈ 1.34 µg/mL), an MIC80 (Candida auris 383; Candidozyma auris, 383) of 2.5 µM (≈ 2.69 µg/mL) and an MIC80 (Candida glabrata 11; Nakaseomyces glabratus, 11) of 0.6 µM (≈ 0.645 µg/mL). The MFC [7] was 5 µM (≈ 5.38 µg/mL), the MIC80 [7] was 0.6 µM (≈ 0.645 µg/mL) and the MIC80 (Candida albicans 5) was 1.25 µM (≈ 1.34 µg/mL). For the same compound, the MFC [8] was 1.25 µM (≈ 1.34 µg/mL), the MIC80 [8] was 0.6 µM (≈ 0.645 µg/mL) and the MIC80 (Candida albicans 10) was 2.5 µM (≈ 2.69 µg/mL). For the same compound, the MFC [9] was greater than 10 µM, the MIC80 [9] was greater than 10 µM and the MFC [10, 18] was 2.5 µM (≈ 2.69 µg/mL). For the same compound, the MIC80 [10, 18] was 2.5 µM (≈ 2.69 µg/mL), the MIC80 (Candida auris 384; Candidozyma auris, 384) was 2.5 µM (≈ 2.69 µg/mL) and the MIC80 (Candida auris 381; Candidozyma auris, 381) was 2.5 µM (≈ 2.69 µg/mL). It also gave an MFC [11] greater than 10 µM, an MIC80 [11] of 1.25 µM (≈ 1.34 µg/mL) and an MIC80 ([12]; Saccharomyces cerevisiae, 400) of 2.5 µM (≈ 2.69 µg/mL). The MFC [13] was 5 µM (≈ 5.38 µg/mL), the MIC80 [13] was 2.5 µM (≈ 2.69 µg/mL) and the MFC ([14]; Rhizopus arrhizus, FGSC9543) was greater than 10 µM. The MIC80 ([14]; Rhizopus arrhizus, FGSC9543) was greater than 10 µM.
